{"source": "ChEMBL document CHEMBL4417633", "about": "“Inhibitory polypeptides specific to WNT inhibitors” (2017)", "key": {"[1]": {"molecular_target": "T1, Dickkopf-related protein 1 (Homo sapiens, UniProt O94907)", "T1 sequence (O94907 whole entry)": "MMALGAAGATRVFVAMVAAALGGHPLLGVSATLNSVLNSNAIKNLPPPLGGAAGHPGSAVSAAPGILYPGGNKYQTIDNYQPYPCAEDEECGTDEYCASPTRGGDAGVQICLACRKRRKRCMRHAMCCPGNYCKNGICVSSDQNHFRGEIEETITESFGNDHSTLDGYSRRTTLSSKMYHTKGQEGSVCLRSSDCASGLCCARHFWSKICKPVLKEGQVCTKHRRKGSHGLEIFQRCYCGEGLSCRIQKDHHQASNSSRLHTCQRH", "assay": "Inhibition of biotin-labeled human recombinant DKK1 assessed as reduction in DKK1 interaction with LRP-6/Fc incubated overnight by chemiluminescence based Alpha-screen assay"}, "[2]": {"molecular_target": "T2, Dickkopf WNT-signaling pathway inhibitor 1 (Rattus norvegicus, UniProt A6I0Z0)", "T2 sequence (A6I0Z0 whole entry)": "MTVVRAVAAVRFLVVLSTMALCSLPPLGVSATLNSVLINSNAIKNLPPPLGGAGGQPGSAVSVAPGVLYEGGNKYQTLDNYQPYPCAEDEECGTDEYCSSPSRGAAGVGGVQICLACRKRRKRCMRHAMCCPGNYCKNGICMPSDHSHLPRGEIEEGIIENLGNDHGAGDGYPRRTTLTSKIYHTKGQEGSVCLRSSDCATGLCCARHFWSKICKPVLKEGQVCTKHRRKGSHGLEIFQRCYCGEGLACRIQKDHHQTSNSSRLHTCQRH", "assay": "Inhibition of biotin-labeled rat recombinant DKK1 assessed as reduction in DKK1 interaction with LRP-6/Fc incubated overnight by chemiluminescence based Alpha-screen assay"}}, "note": "Where a SMILES comes first, the peptide text is derived from it."}
{"smiles": "CSCC[C@H](NC(=O)[C@@H]1CCCN1C(=O)[C@H](Cc1ccc(O)cc1)NC(=O)[C@H](CS)NC(=O)[C@H](Cc1cnc[nH]1)NC(=O)[C@H](CCCCN)NC(=O)[C@H](CC(N)=O)NC(=O)[C@H](Cc1cnc[nH]1)NC(=O)[C@H](CCCNC(=N)N)NC(=O)[C@H](CS)NC(=O)[C@H](CCC(N)=O)NC(=O)[C@H](Cc1ccccc1)NC(=O)[C@H](Cc1ccc(O)cc1)NC(=O)[C@H](CO)NC(=O)[C@H](C)NC(=O)[C@@H]1CCCN1C(=O)[C@@H](N)CS)C(=O)N[C@@H](CCC(=O)O)C(=O)N[C@@H](Cc1c[nH]c2ccccc12)C(=O)N[C@@H](CCCNC(=N)N)C(=O)N[C@@H](CS)C(=O)N[C@@H](CC(=O)O)C(=O)NCC(=O)N[C@@H](Cc1ccccc1)C(=O)N1CCC[C@H]1C(=O)N[C@@H](CC(=O)O)C(=O)N[C@@H](CS)C(=O)N[C@@H](CCC(=O)O)C(=O)N[C@@H](CC(=O)O)C(=O)NCC(=O)N[C@@H](CO)C(=O)N[C@@H](CC(=O)O)C(=O)N[C@@H](CCC(=O)O)C(=O)N[C@@H](CC(C)C)C(=O)N[C@@H](CO)C(=O)N[C@@H](CS)C(=O)N1CCC[C@H]1C(=O)N[C@@H](Cc1ccc(O)cc1)C(=O)N[C@@H](CCCNC(=N)N)C(=O)N[C@H](C(=O)O)[C@@H](C)O", "note": "(H-CPASYFQCRHNKHCYPMEWRCDGFPDCEDGSDELSCPYRT-OH)", "values": [{"measurement": "IC50", "setting": "[1]", "value": "≤ 1", "unit": "nM"}, {"measurement": "IC50", "setting": "[2]", "value": "≤ 1", "unit": "nM"}]}
{"smiles": "CSCC[C@H](NC(=O)[C@@H]1CCCN1C(=O)[C@H](Cc1ccc(O)cc1)NC(=O)[C@H](CS)NC(=O)[C@H](Cc1cnc[nH]1)NC(=O)[C@@H]1CCCN1C(=O)[C@H](Cc1cnc[nH]1)NC(=O)[C@H](CC(N)=O)NC(=O)[C@H](CCCNC(=N)N)NC(=O)[C@H](CS)NC(=O)[C@H](CCC(N)=O)NC(=O)[C@H](Cc1ccccc1)NC(=O)[C@H](Cc1ccc(O)cc1)NC(=O)[C@H](CO)NC(=O)[C@H](C)NC(=O)[C@@H]1CCCN1C(=O)[C@@H](N)CS)C(=O)N[C@@H](CCC(=O)O)C(=O)N[C@@H](Cc1c[nH]c2ccccc12)C(=O)N[C@@H](CCCNC(=N)N)C(=O)N[C@@H](CS)C(=O)N[C@@H](CC(=O)O)C(=O)NCC(=O)N[C@@H](Cc1ccccc1)C(=O)N1CCC[C@H]1C(=O)N[C@@H](CC(=O)O)C(=O)N[C@@H](CS)C(=O)N[C@H](C(=O)N[C@@H](CC(=O)O)C(=O)NCC(=O)N[C@@H](CO)C(=O)N[C@@H](CC(=O)O)C(=O)N[C@@H](CCC(=O)O)C(=O)N[C@@H](CCCCN)C(=O)NCC(=O)N[C@@H](CS)C(=O)N1CCC[C@H]1C(=O)N[C@@H](Cc1ccc(O)cc1)C(=O)N[C@@H](CCCNC(=N)N)C(=O)N[C@H](C(=O)O)[C@@H](C)O)C(C)C", "note": "(H-CPASYFQCRNHPHCYPMEWRCDGFPDCVDGSDEKGCPYRT-OH)", "values": [{"measurement": "IC50", "setting": "[1]", "value": "≤ 1", "unit": "nM"}, {"measurement": "IC50", "setting": "[2]", "value": "≤ 1", "unit": "nM"}]}
{"smiles": "CSCC[C@H](NC(=O)[C@@H]1CCCN1C(=O)[C@H](Cc1ccc(O)cc1)NC(=O)[C@H](CS)NC(=O)[C@H](Cc1cnc[nH]1)NC(=O)[C@H](CC(N)=O)NC(=O)[C@H](CC(N)=O)NC(=O)[C@H](CC(N)=O)NC(=O)[C@H](CCCNC(=N)N)NC(=O)[C@H](CS)NC(=O)[C@H](CCC(N)=O)NC(=O)[C@H](Cc1ccccc1)NC(=O)[C@H](Cc1ccc(O)cc1)NC(=O)[C@H](CO)NC(=O)[C@H](C)NC(=O)[C@@H]1CCCN1C(=O)[C@@H](N)CS)C(=O)N[C@@H](CCC(=O)O)C(=O)N[C@@H](Cc1c[nH]c2ccccc12)C(=O)N[C@@H](CCCNC(=N)N)C(=O)N[C@@H](CS)C(=O)N[C@@H](CC(=O)O)C(=O)NCC(=O)N[C@@H](Cc1ccccc1)C(=O)N[C@@H](CCC(N)=O)C(=O)N[C@@H](CC(=O)O)C(=O)N[C@@H](CS)C(=O)N[C@@H](CCC(=O)O)C(=O)N[C@@H](CC(=O)O)C(=O)NCC(=O)N[C@@H](CO)C(=O)N[C@@H](CC(=O)O)C(=O)N[C@@H](CCC(=O)O)C(=O)N[C@@H](CCCCN)C(=O)NCC(=O)N[C@@H](CS)C(=O)N1CCC[C@H]1C(=O)N[C@@H](Cc1ccc(O)cc1)C(=O)N[C@@H](CCCNC(=N)N)C(=O)N[C@H](C(=O)O)[C@@H](C)O", "note": "(H-CPASYFQCRNNNHCYPMEWRCDGFQDCEDGSDEKGCPYRT-OH)", "values": [{"measurement": "IC50", "setting": "[1]", "value": "40 to 80", "unit": "nM"}, {"measurement": "IC50", "setting": "[2]", "value": "40 to 80", "unit": "nM"}]}
{"smiles": "CSCC[C@H](NC(=O)[C@@H]1CCCN1C(=O)[C@H](Cc1ccc(O)cc1)NC(=O)[C@H](CS)NC(=O)[C@H](CO)NC(=O)[C@H](CC(N)=O)NC(=O)[C@H](CC(N)=O)NC(=O)[C@H](CC(N)=O)NC(=O)[C@H](CCCNC(=N)N)NC(=O)[C@H](CS)NC(=O)[C@H](CCC(N)=O)NC(=O)[C@H](Cc1ccccc1)NC(=O)[C@H](Cc1ccc(O)cc1)NC(=O)[C@H](CO)NC(=O)[C@H](C)NC(=O)[C@@H]1CCCN1C(=O)[C@@H](N)CS)C(=O)N[C@@H](CCC(=O)O)C(=O)N[C@@H](Cc1c[nH]c2ccccc12)C(=O)N[C@@H](CCCNC(=N)N)C(=O)N[C@@H](CS)C(=O)N[C@@H](CC(=O)O)C(=O)NCC(=O)N[C@@H](Cc1ccccc1)C(=O)N[C@@H](CCC(=O)O)C(=O)N[C@@H](CC(=O)O)C(=O)N[C@@H](CS)C(=O)N[C@@H](CCC(=O)O)C(=O)N[C@@H](CC(=O)O)C(=O)NCC(=O)N[C@@H](CO)C(=O)N[C@@H](CC(=O)O)C(=O)N[C@@H](CCC(=O)O)C(=O)N[C@@H](CCCNC(=N)N)C(=O)NCC(=O)N[C@@H](CS)C(=O)N1CCC[C@H]1C(=O)N[C@@H](Cc1ccc(O)cc1)C(=O)N[C@@H](CCCNC(=N)N)C(=O)N[C@H](C(=O)O)[C@@H](C)O", "note": "(H-CPASYFQCRNNNSCYPMEWRCDGFEDCEDGSDERGCPYRT-OH)", "values": [{"measurement": "IC50", "setting": "[1]", "value": "≤ 1", "unit": "nM"}, {"measurement": "IC50", "setting": "[2]", "value": "≤ 1", "unit": "nM"}]}
{"smiles": "CSCC[C@H](NC(=O)[C@@H]1CCCN1C(=O)[C@H](Cc1ccc(O)cc1)NC(=O)[C@H](CS)NC(=O)[C@H](Cc1cnc[nH]1)NC(=O)[C@H](CC(N)=O)NC(=O)[C@H](Cc1ccc(O)cc1)NC(=O)[C@H](CC(N)=O)NC(=O)[C@H](CCCNC(=N)N)NC(=O)[C@H](CS)NC(=O)[C@H](CCC(N)=O)NC(=O)[C@H](Cc1ccccc1)NC(=O)[C@H](Cc1ccc(O)cc1)NC(=O)[C@H](CO)NC(=O)[C@H](C)NC(=O)[C@@H]1CCCN1C(=O)[C@@H](N)CS)C(=O)N[C@@H](CCC(=O)O)C(=O)N[C@@H](Cc1c[nH]c2ccccc12)C(=O)N[C@@H](CCCNC(=N)N)C(=O)N[C@@H](CS)C(=O)N[C@@H](CC(=O)O)C(=O)NCC(=O)N[C@@H](Cc1ccccc1)C(=O)N[C@@H](CCC(=O)O)C(=O)N[C@@H](CC(=O)O)C(=O)N[C@@H](CS)C(=O)N[C@@H](CC(C)C)C(=O)N[C@@H](CC(=O)O)C(=O)NCC(=O)N[C@@H](CO)C(=O)N[C@@H](CC(=O)O)C(=O)N[C@@H](CCC(=O)O)C(=O)N[C@H](C(=O)N[C@@H](CC(=O)O)C(=O)N[C@@H](CS)C(=O)N1CCC[C@H]1C(=O)N[C@@H](Cc1ccc(O)cc1)C(=O)N[C@@H](CCCNC(=N)N)C(=O)N[C@H](C(=O)O)[C@@H](C)O)[C@@H](C)O", "note": "(H-CPASYFQCRNYNHCYPMEWRCDGFEDCLDGSDETDCPYRT-OH)", "values": [{"measurement": "IC50", "setting": "[1]", "value": "≤ 1", "unit": "nM"}, {"measurement": "IC50", "setting": "[2]", "value": "≤ 1", "unit": "nM"}]}
{"smiles": "CSCC[C@H](NC(=O)[C@@H]1CCCN1C(=O)[C@H](Cc1ccc(O)cc1)NC(=O)[C@H](CS)NC(=O)[C@H](Cc1cnc[nH]1)NC(=O)[C@H](CCCCN)NC(=O)[C@H](Cc1ccccc1)NC(=O)[C@H](CC(N)=O)NC(=O)[C@H](Cc1c[nH]c2ccccc12)NC(=O)[C@H](CS)NC(=O)[C@H](CCC(N)=O)NC(=O)[C@H](Cc1ccccc1)NC(=O)[C@H](Cc1ccc(O)cc1)NC(=O)[C@H](CO)NC(=O)[C@H](C)NC(=O)[C@@H]1CCCN1C(=O)[C@@H](N)CS)C(=O)N[C@@H](CCC(=O)O)C(=O)N[C@@H](Cc1c[nH]c2ccccc12)C(=O)N[C@@H](CCCNC(=N)N)C(=O)N[C@@H](CS)C(=O)N[C@@H](CC(=O)O)C(=O)NCC(=O)N[C@@H](Cc1ccccc1)C(=O)N[C@@H](CC(N)=O)C(=O)N[C@@H](CC(=O)O)C(=O)N[C@@H](CS)C(=O)N[C@H](C(=O)N[C@@H](CC(=O)O)C(=O)NCC(=O)N[C@@H](CO)C(=O)N[C@@H](CC(=O)O)C(=O)N[C@@H](CCC(=O)O)C(=O)N[C@@H](CCCCN)C(=O)NCC(=O)N[C@@H](CS)C(=O)N1CCC[C@H]1C(=O)N[C@@H](Cc1ccc(O)cc1)C(=O)N[C@@H](CCCNC(=N)N)C(=O)N[C@H](C(=O)O)[C@@H](C)O)C(C)C", "note": "(H-CPASYFQCWNFKHCYPMEWRCDGFNDCVDGSDEKGCPYRT-OH)", "values": [{"measurement": "IC50", "setting": "[1]", "value": "≤ 1", "unit": "nM"}, {"measurement": "IC50", "setting": "[2]", "value": "≤ 1", "unit": "nM"}]}
{"smiles": "CSCC[C@H](NC(=O)[C@@H]1CCCN1C(=O)[C@H](Cc1ccc(O)cc1)NC(=O)[C@H](CS)NC(=O)[C@H](Cc1cnc[nH]1)NC(=O)[C@H](CC(N)=O)NC(=O)[C@H](Cc1cnc[nH]1)NC(=O)[C@H](CC(N)=O)NC(=O)[C@H](CCCNC(=N)N)NC(=O)[C@H](CS)NC(=O)[C@H](CCCNC(=N)N)NC(=O)[C@H](Cc1ccccc1)NC(=O)[C@H](Cc1ccc(O)cc1)NC(=O)[C@H](CO)NC(=O)[C@H](C)NC(=O)[C@@H]1CCCN1C(=O)[C@@H](N)CS)C(=O)N[C@@H](CCC(=O)O)C(=O)N[C@@H](Cc1c[nH]c2ccccc12)C(=O)N[C@@H](CCCNC(=N)N)C(=O)N[C@@H](CS)C(=O)N[C@@H](CC(=O)O)C(=O)NCC(=O)N[C@@H](Cc1ccccc1)C(=O)N[C@@H](CC(=O)O)C(=O)N[C@@H](CC(=O)O)C(=O)N[C@@H](CS)C(=O)N[C@@H](CCC(=O)O)C(=O)N[C@@H](CC(=O)O)C(=O)NCC(=O)N[C@@H](CO)C(=O)N[C@@H](CC(=O)O)C(=O)N[C@@H](CCC(=O)O)C(=O)N[C@@H](CCC(N)=O)C(=O)NCC(=O)N[C@@H](CS)C(=O)N1CCC[C@H]1C(=O)N[C@@H](Cc1ccc(O)cc1)C(=O)N[C@@H](CCCNC(=N)N)C(=O)N[C@H](C(=O)O)[C@@H](C)O", "note": "(H-CPASYFRCRNHNHCYPMEWRCDGFDDCEDGSDEQGCPYRT-OH)", "values": [{"measurement": "IC50", "setting": "[1]", "value": "≤ 1", "unit": "nM"}, {"measurement": "IC50", "setting": "[2]", "value": "≤ 1", "unit": "nM"}]}
